Earlier results, collected in article PMC3652662 (Journal of molecular recognition : JMR, 2009).

Tested on: HIV-1YU2 gp120
Conditions: SPR direct binding, HIV-1 Env YU2 (clade B) gp120; ref Gopi et al. (2008)

In the case of RINNIPWSEAMM [Peptide 12p1], the ka is listed as 13600 M⁻¹ s⁻¹.
